Results reported in patent publication US12473551B2, “Small RNA-based drug, preparation and use thereof in prophylaxis and/or treatment of cardiomyopathy” (SOUTHWEST MEDICAL UNIVERSITY, priority 2023, dated 2025).
“Also recorded” adds a separate entry of the source.

Tests used:
[1] = tested on: AC16 human cardiomyocytes treated with AGEs; assay: CCK8 cell viability screening of candidate sequences in AGEs-treated cardiomyocytes; type: cell-based; conditions: for protective effect on cardiomyocytes compared with DICAR-JP / relative cell viability / protective effect at around 48 h: 20 nM, CCK8; for protective effect on cardiomyocytes compared with DICAR-JP: 24 h transfection; for protective effect on cardiomyocytes compared with DICAR-JP / relative cell viability: AGEs 200 μg/mL for 24 h; for protective effect at around 48 h: AGEs 200 μg/mL for 48 h
Description: In this example, CCK8 assay was used to evaluate the protective activity of the candidate sequences against cardiomyocytes treated with advanced glycation end products (AGEs, purchased from Bioss®, Cat #bs-1158P), so as to select a small RNA with a better protective effect on cardiomyocytes. The method included the following steps:
Cell culture: AC16 human cardiomyocytes (purchased from Guangzhou Jennio Biotech Co., Ltd., derived from ATCC) were cultured in DMEM (High Glucose) Complete Medium (supplemented with 10% fetal bovine serum (FBS) and 1% […]) in a 5% CO2, 37° C. incubator.
Grouping: Control, AGEs (200 μg/mL, 24 h/48 h), negative control (NC, 20 nM, 24 h), DICAR-JP4 (20 nM, 24 h), DICAR-JP6 (20 nM, 24 h), DICAR-JP18 (20 nM, 24 h), DICAR-JP23 (20 nM, 24 h), DICAR-JP27 (20 nM, 24 h), DICAR-JP28 (20 nM, 24 h), DICAR-JP29 (20 nM, 24 h), DICAR-JP32 (20 nM, 24 h), DICAR-JP40 (20 nM, 24 h), DICAR-JP45 (20 nM, 24 h), and DICAR-JP (20 nM, 24 h).
Nucleic acid transfection method: Two microliters (μL) each of Lipofectamine® RNAi MAX (Thermo Fisher Scientific RNi MAX, Cat #13778-500) and DICAR-JPN were diluted with Opti-MEM® Medium (50 μL), respectively, and then the two reagents were mixed well and incubated at room temperature for 5 min. The Lipofectamine® RNAi MAX-DICAR-JPN complex was added to the AC16 cell supernatant (50 μL/well, 24 h) on a 24-well plate. Afterward, the complete medium was replaced with serum-free DMEM, and the cell cycle was synchronized for 2 h. AC16 cells were treated with 200 μg/mL AGEs for 24 and 48 h, respectively, and their viability was evaluated by CCK8 assay.
Evaluation of cell viability by CCK8 assay: The cells were washed twice with phosphate-buffered saline (PBS) in the dark, and serum-free DMEM supplemented with CCK8 (CCK8: DMEM=1:9) was added; the well plate was placed back into the cell culture incubator for further incubation for 1 h, and the absorbance was measured at 450 nm using a microplate reader. The cell viability (%) was calculated according to the following formula: Cell viability=[(A450nmExperiment−A450nmBlank)]/[(A450nmControl−A450nmBlank)]×100%, where the blank refers to the serum-free DMEM.

[2] = tested on: AC16 cardiomyocytes treated with AGEs; assay: Pharmacodynamics: CCK8 EC50 against AGEs-induced cardiomyocyte injury; type: cell-based, human; conditions: for protective effect over concentration gradient (relative survival of cardiomyocytes): 1, 10, 20, 30, 40, 50 nM + AGEs 200 μg/mL, 24 h; for EC50: 1-50 nM, 24 h + AGEs 200 μg/mL, CCK8, fitting curve, read-out: half-maximal effect concentration (EC50)
Description: The cell viability was detected by CCK8 assay after 24 h of cell treatment. The absorbance was measured at 450 nm using a microplate reader to calculate the half-maximal effect concentration (EC50), respectively. EC50 was calculated according to the following formula:
[formula] where the blank refers to the serum-free DMEM.

ASC = assay: Western blot of pyroptosis-related protein ASC in AGEs-treated AC16 cells; type: cell-based, human; conditions: 40 nM, 24 h + AGEs 200 μg/mL, β-actin reference
Description: (§1) The DICAR-JP45 (40 nM) and DICAR-JP sequences were transfected into AC16 cell model for 24 h, respectively. The serum-free medium was replaced for starvation for 2 h, followed by treatment with AGEs (200 μg/mL) for 24 h, respectively. After the cells were treated, the expressions of pyroptosis-related proteins, GSDMD and apoptosis associated speck-like protein containing a CARD (ASC), were detected by Western blot (WB). The internal reference protein was β-actin. The WB was conducted according to the following steps.
(§2) The cells were rinsed twice with PBS, protein lysate (100 μL/well) was added, and the cells were lysed on ice for 30 min. The lysate was collected and centrifuged at 12000 rpm for 30 min at 4° C. After centrifugation, the supernatant protein was collected. The protein sample was mixed with the protein loading buffer at a 4:1 ratio and heated in a metal bath at 95° C. for 10 min, and the sample was stored at 4° C. […] Signals were detected by using enhanced chemiluminescent reagent, and the Western blot bands were quantitatively analyzed by Image J software. […]

GSDMD = assay: Western blot of pyroptosis-related protein GSDMD in AGEs-treated AC16 cells; type: cell-based, human; conditions: 40 nM, 24 h + AGEs 200 μg/mL, β-actin reference
Description: as §1, §2

NACα protein = NACα protein (Homo sapiens, UniProt Q13765); assay: Localized surface plasmon resonance (SPR) binding to NACα protein; conditions: DEPC-treated water, 25° C.; for Kd: ratio Koff/Kon
Description: The affinity of DICAR-JP45 and DICAR-JP for binding to NACα protein was compared using localized surface plasmon resonance (SPR) technology (Wuhan Yangene Biological Technology Co., Ltd.).
Among them, the dissociation coefficient Koff is used to characterize the constant of the dissociation velocity of DICAR-JP45 and NACα protein, the binding coefficient Kon is used to characterize the constant of the binding velocity of DICAR-JP45 and NACα protein, and the affinity constant KD is the ratio of Koff/Kon, indicating the equilibrium dissociation constant between DICAR-JP45 and NACα protein.

db/db mice = assay: Cardiac function of db/db mice after AAV9-DICAR-JP / AAV9-DICAR-JP45 tail vein injection; type: in vivo, mouse; conditions: for E′/a value: db/db mice 1.14, DICAR-JP p<0.05, DICAR-JP45 no statistical significance
Description: In the present disclosure, Shanghai Jikai Gene Medical Technology Co., Ltd. was commissioned to construct AAV9-DICAR-JP and AAV9-DICAR-JP45 viruses based on the sequences shown in SEQ ID NOS: 12 and 10, including CMV bGlobin EGFP-MCS-WPRE hGH polyA as a viral plasmid construction skeleton element sequence, a vector with the number GV412, and NheI and Hind III as cloning sites; the construction of microRNA up involves extending the precursor sequence of microRNA approximately 100 bp each upstream and downstream of the genome, ensuring the splicing efficiency of microRNA.
The mice were divided into db/m+AAV9-GFP (mock control, 5×10^11 vg), db/db+AAV9-GFP (5×10^11 vg), db/db+AAV9-DICAR-JP (5×10^11 vg), db/db+AAV9-DICAR-JP45 (5×10^11 vg), and db/db+dapagliflozin (DAPA, 1.5 mg/kg/d) groups. AAV9 viruses were injected into the tail vein of the mice at the age of 4 months. The mice in the db/db group were administered by gastric gavage with DAPA at the age of 5 months, and the mice in the db/m group were controls without gastric gavage of DAPA. The changes of cardiac function were evaluated by small animal echocardiography at the age of 5, 6 and 7 months, respectively, cardiac remodeling was evaluated by Masson staining, and myocardial hypertrophy was evaluated by wheat germ agglutinin (WGA) staining.

[3] = AAV9 tail vein, echocardiography

Row | Sequence | protective effect on cardiomyocytes compared with DICAR-JP [1] | relative cell viability [1] | protective effect at around 48 h [1] | protective effect over concentration gradient (relative survival of cardiomyocytes) [2] | EC50 [2] [nM] | suppression of expression of ASC (ASC) | efficacy duration [1] | suppression of expression of GSDMD (GSDMD) | Koff (NACα protein) [s⁻¹] | Kon (NACα protein) [M⁻¹ s⁻¹] | Kd (NACα protein) [nM] | improvement in mouse cardiac function (db/db mice; 3 months after tail vein injection at age 4 months) | ejection fraction (EF) value (db/db mice; AAV9 5×10^11 vg tail vein, 3 months after injection, db/db mice 57.5%) [%] | E′/a value (db/db mice; AAV9 5×10^11 vg tail vein) | cardiomyocyte hypertrophy (WGA staining) (db/db mice; AAV9 tail vein) | FS value (db/db mice; [3]) | LVVs value (db/db mice; [3])
1 | CAACCUCCGGGGCCACAAUAGCGAGAUUUGUAAGAUUCCAGGGCCUCCCAG (listed as RNA, chemistry not given here) [DICAR-JP40] | significant protective effect | significantly higher than that of the model group | disappeared |  |  |  |  |  |  |  |  |  |  |  |  |  | 
2 | CAACCUCCGGGGCCACAAUAGCGAGAUUUGUAAGACUCUAGGGCCUCCCAG (chemistry not given here) [DICAR-JP45] | significant protective effect | higher cardiomyocyte viability; also recorded: close to that of the untreated group | disappeared | increase within the concentration gradient range | 17.9 | more significantly compared with DICAR-JP | over 24 h | more significantly compared with DICAR-JP | 0.000152 | 25000 | 6.09 | a certain effect on improving cardiac function | 71.07 | 1.45 | no significant effect on improving myocardial hypertrophy | improve | improve
3 | CAACCUCCGGGGCCACAAUAGCGAGAUUUGUAAGACUCCAGGGCCUCCCAG (chemistry not given here) [DICAR-JP, reference compound] |  |  |  | increase within the concentration gradient range | 26.2 |  |  |  | 0.000866 | 22600 | 38.3 |  |  | 1.73 | effectively inhibit cardiomyocyte hypertrophy |  | 
